Patent US12172968B1, “4-[4,4-bis(4-chlorophenyl)-2,5-dioxoimidazolidin-1-yl]butanoic acid as an antimicrobial compound” (KING FAISAL UNIVERSITY, priority 2024, dated 2024)

Columns and labels:
Type in all cases: cell-based
Conditions in all cases: after 10, 20, 40 and 60 minutes at all dilutions 1:100, 1:200, 1:400, 1:800
[1] = tested on: Pseudomonas aeruginosa; assay: Antimicrobial testing by agar dilution, Ps. aeruginosa
Method: (§1) The antimicrobial properties of the 4-[4,4-bis(4-chlorophenyl)-2,5-dioxoimidazolidin-1-yl]butanoic acid were studied by the method of agar dilution. Test solutions of each compound was prepared in concentration of 1% using dimethylformamide as a solvent then they are diluted in physiological solution to obtain the final experimental dilutions 1:100, 1:200, 1:400, 1:800. The effect of these substances are compared with furacillin in a controllable study. The testing microbes used were gram positive bacteria Staphylococcus aereus, gram negative bacteria Escherichia Coli, Pseudomonas aeruginosa and Candida albicans fungi were taken. The experiments used for this survey were meat-pentonlu agar (EPA) for cultivation of bacteria and Saburo environment for fungi. Each experiment used iml of test solution on each plate 500 min. Add 2 drops of emulsified with microbes feel. All experimental samples were taken from the agar after 10, 20, 40, 60 minutes in the environment on the basis of Patrk planted. Bacteria were cultivated at a temperature of 37° C. for 1 day and the mushroom was kept in a thermostat for […] at a temperature of 28° C. in the. Then results were checked.

[2] = tested on: Staphylococcus aereus; assay: Antimicrobial testing by agar dilution, St. Aereus
Method: as §1

[3] = tested on: Candida albicans; assay: Antimicrobial testing by agar dilution, Candida albicans
Method: as §1

[4] = tested on: Escherichia Coli; assay: Antimicrobial testing by agar dilution, E. Coli
Method: as §1

Measured: inhibition activity (summary in words)

O=C(O)CCCN1C(=O)NC(c2ccc(Cl)cc2)(c2ccc(Cl)cc2)C1=O [4-[4,4-bis(4-chlorophenyl)-2,5-dioxoimidazolidin-1-yl]butanoic acid]
higher inhibition activity: all assays above
